Laboratory results published in ChEMBL document CHEMBL1152083, “Structure-activity studies of nonmacrocyclic rapamycin derivatives” (Bioorg Med Chem Lett, 1993).
Activity calls are given as the source filed them. The rule behind the calls is not given here.

Key:
[1] = organism: Mus musculus; assay: In vitro immunosuppressive activity by splenocyte mitogenesis assay in spleen cells from BDF1 female mice at 1 pM to 10 uM concentration; not active; type: functional, cell-based
[2] = Binding affinity for FK506 binding protein; details: read-out: Ki app
[3] = organism: Mus musculus; assay: In vitro immunosuppressive activity by splenocyte mitogenesis assay in spleen cells from BDF1 female mice at 1 pM to 10 uM concentration; type: functional, cell-based
[4] = Binding affinity for FK506 binding protein; value ranges from 2-6 nM; details: read-out: Ki app

With `COCC(=O)[C@H](C)C[C@H](C)\C=C/C=C/C=C(\C)[C@H](C[C@@H]1CC[C@@H](C)[C@](O)(C(=O)C(=O)N2CCCC[C@H]2C(=O)O[C@@H](CC(=O)[C@H](C)/C=C(\C)C=O)[C@H](C)C[C@@H]2CC[C@@H](O)[C@H](OC)C2)O1)OC` the Activity [1] was “inactive” and the Ki [2] was 4 nM.

With `COCC(=O)[C@H](C)C[C@H](C)\C=C/C=C/C=C(\C)[C@H](C[C@@H]1CC[C@@H](C)[C@](O)(C(=O)C(=O)N2CCCC[C@H]2C(=O)OCc2ccccc2)O1)OC` the Activity [1] was “inactive” and the Ki [2] was 15 nM.

In the case of `CO[C@H]1C[C@@H]2CC[C@@H](C)[C@@](O)(O2)C(=O)C(=O)N2CCCC[C@H]2C(=O)O[C@H]([C@H](C)C[C@@H]2CC[C@@H](O)[C@H](OC)C2)CC(=O)[C@H](C)/C=C(\C)[C@@H](O)[C@@H](OC)C(=O)[C@H](C)C[C@H](C)/C=C/C=C/C=C/1C` [SIROLIMUS], the Ki [2] is reported as 0.5 nM and the IC50 [3] is reported as 1 nM.

In the case of `COCC(=O)[C@H](C)C[C@H](C)\C=C/C=C/C=C(\C)[C@H](C[C@@H]1CC[C@@H](C)[C@](O)(C(=O)C(=O)N2CCCC[C@H]2C(=O)NCc2ccccc2)O1)OC`, the Activity [1] is reported as “inactive” and the Ki [2] is reported as 110 nM.

With `COCC(=O)[C@H](C)C[C@H](C)\C=C/C=C/C=C(\C)[C@H](C[C@@H]1CC[C@@H](C)[C@](O)(C(=O)C(=O)N2CCCC[C@H]2C(=O)OC)O1)OC` the Activity [1] was “inactive” and the Ki [2] was 12 nM.

With `CCC(C)(C)C(=O)C(=O)N1CCCC[C@H]1C(=O)O[C@@H](CC(=O)[C@H](C)/C=C(\C)[C@@H](O)[C@@H](OC)C(=O)[C@H](C)C[C@H](C)\C=C/C=C/C=C(\C)[C@H](C[C@@H]1CC[C@@H](C)C(=O)O1)OC)[C@H](C)C[C@@H]1CC[C@@H](O)[C@H](OC)C1` the Activity [1] was “inactive” and the Ki [2] was 20 nM.

For `COC(=O)[C@@H]1CCCCN1C(=O)C(=O)[C@]1(O)O[C@H](C[C@H](OC)/C(C)=C/C=C/C=C\[C@@H](C)C[C@@H](C)C(=O)[C@H](OC)[C@H](O)/C(C)=C/[C@@H](C)C(=O)/C=C/[C@H](C)C[C@@H]2CC[C@@H](O)[C@H](OC)C2)CC[C@H]1C`, the Activity [1] was “inactive” and the Ki [2] was 29 nM.

With `COCC(=O)[C@H](C)C[C@H](C)\C=C/C=C/C=C(\C)[C@H](C[C@@H]1CC[C@@H](C)[C@](O)(C(=O)C(=O)N2CCCC[C@H]2C(=O)OC(C)c2ccccc2)O1)OC` (stereo partly drawn) the Activity [1] was “inactive” and the Ki [2] was 41 nM.

With `CO[C@@H](C[C@@H]1CC[C@@H](C)[C@](O)(C(=O)C(=O)N2CCCC[C@H]2C(=O)OCc2ccccc2)O1)/C(C)=C/C=C/C=C\[C@@H](C)C[C@@H](C)C(=O)[C@H](OC)[C@H](O)/C(C)=C/[C@@H](C)C(=O)/C=C/[C@H](C)C[C@@H]1CC[C@@H](O)[C@H](OC)C1` the Activity [1] was “inactive” and the Ki [4] was 2 nM.

In the case of `COCC(=O)[C@H](C)C[C@H](C)\C=C/C=C/C=C(\C)[C@H](C[C@@H]1CC[C@@H](C)[C@](O)(C(=O)C(=O)N2CCCC[C@H]2C(=O)OCCCc2ccc(OC)c(OC)c2)O1)OC`, the Activity [1] is reported as “inactive” and the Ki [2] is reported as 43 nM.

For `COCC(=O)[C@H](C)C[C@H](C)\C=C/C=C/C=C(\C)[C@H](C[C@@H]1CC[C@@H](C)[C@](O)(C(=O)C(=O)N2CCCC[C@H]2C(=O)OC/C=C/c2ccccc2)O1)OC`, the Activity [1] was “inactive” and the Ki [2] was 31 nM.

With `COCC(=O)[C@H](C)C[C@H](C)\C=C/C=C/C=C(\C)[C@H](C[C@@H]1CC[C@@H](C)[C@](O)(C(=O)C(=O)N2CCCC[C@H]2C(=O)NCCCc2ccccc2)O1)OC` the Activity [1] was “inactive” and the Ki [2] was 32 nM.

In the case of `COCC(=O)[C@H](C)C[C@H](C)\C=C/C=C/C=C(\C)[C@H](C[C@@H]1CC[C@@H](C)[C@](O)(C(=O)C(=O)N2CCCC[C@H]2C(=O)O)O1)OC`, the Activity [1] is reported as “inactive” and the Ki [2] is reported as 500 nM.

With `COCC(=O)[C@H](C)C[C@H](C)\C=C/C=C/C=C(\C)[C@H](C[C@@H]1CC[C@@H](C)[C@](O)(C(=O)C(=O)N2CCCC[C@H]2C(=O)OC(C)C)O1)OC` the Activity [1] was “inactive” and the Ki [2] was 51 nM.
